Consider 20 compounds from US11325940B2, “Certain chemical entities, compositions, and methods” (NeuPharma, Inc., priority 2012, dated 2022).

Where only a bound is given, the exact number is not on record here.

The first experiment relates to A549 cells. Put plainly: Inhibition of cancer cell growth, MTT assay. The conditions noted are these: Homo sapiens, A549, 72 h. Type of experiment: cell-based. The protocol: Inhibition of cell growth by compounds was measured using MTT assay (Mosmann, T., Journal of Immunological Methods, 1983, 65, 55-63). Tumor cell lines were purchased from ATCC (American Type Culture Collection, Manassas, Va.). All cell lines were maintained in RPMI 1640 (Hyclone) supplemented with 10% fetal bovine serum (FBS, Hyclone), glutamine (2 mM, Hyclone), and antibiotics (penicillin 100 U/mL and streptomycin 50 μg/mL) at 37° C. in a humidified atmosphere of 5% CO2 in air. Taxol (as a positive control, Sigma) and compounds were dissolved in DMSO (Sigma), and the final concentration of DMSO in the medium was 1%. Tumor cells were plated in 96-well plates at densities of about 4000 cells/well of a 96-well plate and allowed to adhere/grow for 24 h. They were then treated with various concentrations of drug for 72 h. 3-(4,5-Dimethylthiazol-2-yl)-2,5-diphenyltetrazolium bromide (MTT, Sigma) was used to determine the number of viable cells at the time of compound addition and the number of cells remaining after 72 h compound exposure. The number of cells remaining after 72 h was compared to the number of viable cells at the time of compound addition by measuring the absorbance at 570 nm, allowing for the calculation of growth inhibition.
All concentrations of compounds were tested in triplicate and controls were averaged over 4 wells. IC50 was calculated by plotting the concentration of compound vs the percentage of inhibition in treated wells using GraphPad Prism 5. […] The scale utilized in Table 3 is as follows: ++++ less than 20 nM; +++ between 20 nM and 100 nM; ++ between 100 nM and 1000 nM; and + greater than 1000 nM.
The IC50 is the midpoint of a concentration-inhibition curve. In turn, `C[C@]12CC[C@@H](NC(=O)N3CCCC3)C[C@H]1CC[C@@H]1[C@@H]2CC[C@]2(C)[C@@H](c3ccc(=O)oc3)CC[C@]12O` [Compound C05, N-((3R,5R,8R,9S,10S,13R,14S,17R)-14-hydroxy-10,13-dimethyl-17-(2-oxo-2H-pyran-5-yl)hexadecahydro-1H-cyclopenta[a]phenanthren-3-yl)pyrrolidine-1-carboxamide] registered an IC50 of 100 to 1000 nM.
In turn, `C[C@]12CC[C@H](NC(=O)N3CCCC3)C[C@H]1CC[C@@H]1[C@@H]2CC[C@]2(C)[C@@H](c3ccc(=O)oc3)CC[C@]12O` [Compound C06, N-((3S,5R,8R,9S,10S,13R,14S,17R)-14-hydroxy-10,13-dimethyl-17-(2-oxo-2H-pyran-5-yl)hexadecahydro-1H-cyclopenta[a]phenanthren-3-yl)pyrrolidine-1-carboxamide] showed an IC50 below 20 nM.
Same read-out and setting: in the case of `C[C@]12CC[C@@H](NC(=O)NCCO)C[C@H]1CC[C@@H]1[C@@H]2CC[C@]2(C)[C@@H](c3ccc(=O)oc3)CC[C@]12O` [Compound C07, 1-((3R,5R,8R,9S,10S,13R,14S,17R)-14-hydroxy-10,13-dimethyl-17-(2-oxo-2H-pyran-5-yl)hexadecahydro-1H-cyclopenta[a]phenanthren-3-yl)-3-(2-hydroxyethyl)urea] it was 100 to 1000 nM; in that of `C[C@]12CC[C@H](NC(=O)NCCO)C[C@H]1CC[C@@H]1[C@@H]2CC[C@]2(C)[C@@H](c3ccc(=O)oc3)CC[C@]12O` [Compound C09, 1-((3S,5R,8R,9S,10S,13R,14S,17R)-14-hydroxy-10,13-dimethyl-17-(2-oxo-2H-pyran-5-yl)hexadecahydro-1H-cyclopenta[a]phenanthren-3-yl)-3-(2-hydroxyethyl)urea], 20 to 100 nM; in that of `C[C@]12CC[C@@H](NC(=O)[C@@H]3CCCN3)C[C@H]1CC[C@@H]1[C@@H]2CC[C@]2(C)[C@@H](c3ccc(=O)oc3)CC[C@]12O` [Compound C13, (S)-N-((3R,5R,8R,9S,10S,13R,14S,17R)-14-hydroxy-10,13-dimethyl-17-(2-oxo-2H-pyran-5-yl)hexadecahydro-1H-cyclopenta[a]phenanthren-3-yl)pyrrolidine-2-carboxamide], 100 to 1000 nM.
On the same count and under the same terms, in the case of `C[C@]12CC[C@H](NC(=O)[C@@H]3CCCN3)C[C@H]1CC[C@@H]1[C@@H]2CC[C@]2(C)[C@@H](c3ccc(=O)oc3)CC[C@]12O` [Compound C14, (S)-N-((3S,5R,8R,9S,10S,13R,14S,17R)-14-hydroxy-10,13-dimethyl-17-(2-oxo-2H-pyran-5-yl)hexadecahydro-1H-cyclopenta[a]phenanthren-3-yl)pyrrolidine-2-carboxamide] it was below 20 nM; in that of `C[C@]12CCC(N3CCNCC3)C[C@H]1CC[C@@H]1[C@@H]2CC[C@]2(C)[C@@H](c3ccc(=O)oc3)CC[C@]12O` (stereo partly drawn) [Compound C15, 5-((5R,8R,9S,10S,13R,14S,17R)-14-hydroxy-10,13-dimethyl-3-(piperazin-1-yl)hexadecahydro-1H-cyclopenta[a]phenanthren-17-yl)-2H-pyran-2-one], below 20 nM; in that of `C[C@]12CC[C@H](NS(C)(=O)=O)C[C@H]1CC[C@@H]1[C@@H]2CC[C@]2(C)[C@@H](c3ccc(=O)oc3)CC[C@]12O` [Compound C16, N-((3S,5R,8R,9S,10S,13R,14S,17R)-14-hydroxy-10,13-dimethyl-17-(2-oxo-2H-pyran-5-yl)hexadecahydro-1H-cyclopenta[a]phenanthren-3-yl)methanesulfonamide], below 20 nM.
Regarding `COC(=O)N[C@H]1CC[C@@]2(C)[C@H](CC[C@@H]3[C@@H]2CC[C@]2(C)[C@@H](c4ccc(=O)oc4)CC[C@]32O)C1` [Compound C17, methyl ((3S,5R,8R,9S,10S,13R,14S,17R)-14-hydroxy-10,13-dimethyl-17-(2-oxo-2H-pyran-5-yl)hexadecahydro-1H-cyclopenta[a]phenanthren-3-yl)carbamate], the half-inhibitory concentration (IC50) is below 20 nM.
Regarding `COC(=O)N(C)C1CC[C@@]2(C)[C@H](CC[C@@H]3[C@@H]2CC[C@]2(C)[C@@H](c4ccc(=O)oc4)CC[C@]32O)C1` (stereo partly drawn) [Compound C21, methyl ((5R,8R,9S,10S,13R,14S,17R)-14-hydroxy-10,13-dimethyl-17-(2-oxo-2H-pyran-5-yl)hexadecahydro-1H-cyclopenta[a]phenanthren-3-yl)(methyl)carbamate], the IC50 is below 20 nM.
Same read-out and setting: in the case of `CN(C(=O)N1CCOCC1)C1CC[C@@]2(C)[C@H](CC[C@@H]3[C@@H]2CC[C@]2(C)[C@@H](c4ccc(=O)oc4)CC[C@]32O)C1` (stereo partly drawn) [Compound C23, N-((5R,8R,9S,10S,13R,14S,17R)-14-hydroxy-10,13-dimethyl-17-(2-oxo-2H-pyran-5-yl)hexadecahydro-1H-cyclopenta[a]phenanthren-3-yl)-N-methylmorpholine-4-carboxamide] it was 100 to 1000 nM; in that of `CC(C)[C@@H](N)C(=O)N[C@H]1CC[C@@]2(C)[C@H](CC[C@@H]3[C@@H]2CC[C@]2(C)[C@@H](c4ccc(=O)oc4)CC[C@]32O)C1` [Compound C25, (R)-2-amino-N-((3S,5R,8R,9S,10S,13R,14S,17R)-14-hydroxy-10,13-dimethyl-17-(2-oxo-2H-pyran-5-yl)hexadecahydro-1H-cyclopenta[a]phenanthren-3-yl)-3-methylbutanamide], below 20 nM; in that of `CC(C)[C@@H](N)C(=O)N[C@H]1CC[C@]2(C)[C@H]3CC[C@]4(C)[C@@H](c5ccc(=O)oc5)CC[C@]4(O)[C@@H]3CC[C@]2(O)C1` [Compound C29, (2R)-2-amino-N-((5S,8R,9S,10R,13R,14S,17R)-5,14-dihydroxy-10,13-dimethyl-17-(2-oxo-2H-pyran-5-yl)hexadecahydro-1H-cyclopenta[a]phenanthren-3-yl)-3-methylbutanamide], below 20 nM.
The same measure, in the same setting: in the case of `C[C@]12CCC(NC(=O)[C@H]3CCCN3)C[C@@]1(O)CC[C@@H]1[C@@H]2CC[C@]2(C)[C@@H](c3ccc(=O)oc3)CC[C@]12O` (stereo partly drawn) [Compound C31, (2R)-N-((5S,8R,9S,10R,13R,14S,17R)-5,14-dihydroxy-10,13-dimethyl-17-(2-oxo-2H-pyran-5-yl)hexadecahydro-1H-cyclopenta[a]phenanthren-3-yl)pyrrolidine-2-carboxamide] it was below 20 nM; in that of `C[C@]12CC[C@@H](N)C[C@H]1CC[C@@H]1[C@@H]2CC[C@]2(C)[C@@H](c3ccc(=O)oc3)CC[C@]12O` [Compound C34, 5-((3R,5R,8R,9S,10S,13R,14S,17R)-3-amino-14-hydroxy-10,13-dimethylhexadecahydro-1H-cyclopenta[a]phenanthren-17-yl)-2H-pyran-2-one], above 1000 nM; in that of `C[C@]12CC[C@H](N)C[C@H]1CC[C@@H]1[C@@H]2CC[C@]2(C)[C@@H](c3ccc(=O)oc3)CC[C@]12O` [Compound C35, 5-((3S,5R,8R,9S,10S,13R,14S,17R)-3-amino-14-hydroxy-10,13-dimethylhexadecahydro-1H-cyclopenta[a]phenanthren-17-yl)-2H-pyran-2-one], below 20 nM.

Still in this experiment, the particulars now being: Homo sapiens; A549 cells, 72 h compound exposure, MTT; read-out: IC50.
On to `C[C@]12CC[C@@H](NC(=O)N3CCOCC3)C[C@H]1CC[C@@H]1[C@@H]2CC[C@]2(C)[C@@H](c3ccc(=O)oc3)CC[C@]12O` [Compound C01, N-((3R,5R,8R,9S,10S,13R,14S,17R)-14-hydroxy-10,13-dimethyl-17-(2-oxo-2H-pyran-5-yl)hexadecahydro-1H-cyclopenta[a]phenanthren-3-yl)morpholine-4-carboxamide], for which the half-maximal inhibitory concentration (IC50) was 100 to 1000 nM.
Regarding `C[C@]12CC[C@@H](NC(=O)N3CCNCC3)C[C@H]1CC[C@@H]1[C@@H]2CC[C@]2(C)[C@@H](c3ccc(=O)oc3)CC[C@]12O` [Compound C03, N-((3R,5R,8R,9S,10S,13R,14S,17R)-14-hydroxy-10,13-dimethyl-17-(2-oxo-2H-pyran-5-yl)hexadecahydro-1H-cyclopenta[a]phenanthren-3-yl)piperazine-1-carboxamide], the IC50 is below 20 nM.
Still for that read-out and setting: in the case of `C[C@]12CC[C@@H](NC(=O)NCCN)C[C@H]1CC[C@@H]1[C@@H]2CC[C@]2(C)[C@@H](c3ccc(=O)oc3)CC[C@]12O` [Compound C08, 1-(2-aminoethyl)-3-((3R,5R,8R,9S,10S,13R,14S,17R)-14-hydroxy-10,13-dimethyl-17-(2-oxo-2H-pyran-5-yl)hexadecahydro-1H-cyclopenta[a]phenanthren-3-yl)urea] it was 100 to 1000 nM; in that of `C[C@]12CC[C@@H](NC(=O)CN)C[C@H]1CC[C@@H]1[C@@H]2CC[C@]2(C)[C@@H](c3ccc(=O)oc3)CC[C@]12O` [Compound C11, 2-amino-N-((3R,5R,8R,9S,10S,13R,14S,17R)-14-hydroxy-10,13-dimethyl-17-(2-oxo-2H-pyran-5-yl)hexadecahydro-1H-cyclopenta[a]phenanthren-3-yl)acetamide], 20 to 100 nM.
